Results as given in patent US20200331925A1, “HETEROCYCLIC COMPOUNDS FOR THE TREATMENT OF ABNORMAL CELLULAR PROLIFERATION” (G1 Therapeutics, Inc., priority 2018, published 2020).

How the values were obtained:
Format in all cases: biochemical
[1] = biological target: CDK1/Cyclin B1 (Homo sapiens, UniProt P06493); assay: CDK1/Cyclin B1 kinase assay (Nanosyn, Caliper microfluidic); conditions: 12-point dose-response, ATP at Km (40 μM), 3 hr
Description: (§1) Selected compounds disclosed herein were tested in kinase assays by Nanosyn (Santa Clara, Calif.) to determine their inhibitory effect on selected CDKs. The assays were performed using microfluidic kinase detection technology (Caliper Assay Platform). The compounds were tested in 12-point dose-response format in singlicate at Kmfor ATP. Phosphoacceptor substrate peptide concentration used was 1 μM for all assays and Staurosporine was used as the reference compound for all assays. Specifics of each assay are as described below: CDK1/Cyclin B1: Enzyme concentration: 0.08 nM; ATP concentration: 40 μM; Incubation time: 3 hr.

[2] = biological target: CDK2/Cyclin A (Homo sapiens, UniProt P24941); assay: CDK2/Cyclin A kinase assay (Nanosyn, Caliper microfluidic); conditions: 12-point dose-response, ATP at Km (50 μM), 3 hr
Description: as §1, with “CDK2/Cyclin A:” for “CDK1/Cyclin B1:”, “0.1” for “0.08”, “50” for “40”

[3] = biological target: CDK2/Cyclin E (Homo sapiens, UniProt P24941); assay: CDK2/Cyclin E kinase assay (Nanosyn, Caliper microfluidic); conditions: 12-point dose-response, ATP at Km (100 μM), 3 hr
Description: as §1, with “CDK2/Cyclin E:” for “CDK1/Cyclin B1:”, “0.15” for “0.08”, “100” for “40”

[4] = biological target: CDK3/Cyclin E (Homo sapiens, UniProt Q00526); assay: CDK3/Cyclin E kinase assay (Nanosyn, Caliper microfluidic); conditions: 12-point dose-response, ATP at Km (400 μM), 3 hr
Description: as §1, with “CDK3/Cyclin E:” for “CDK1/Cyclin B1:”, “1” for “0.08”, “400” for “40”

[5] = biological target: CDK4/Cyclin D1 (Homo sapiens, UniProt P11802); assay: CDK4/Cyclin D1 kinase assay (Nanosyn, Caliper microfluidic); conditions: 12-point dose-response, ATP at Km (200 μM), 3 hr; Table 4
CDK4/Cyclin D1, sequence (P11802 whole entry): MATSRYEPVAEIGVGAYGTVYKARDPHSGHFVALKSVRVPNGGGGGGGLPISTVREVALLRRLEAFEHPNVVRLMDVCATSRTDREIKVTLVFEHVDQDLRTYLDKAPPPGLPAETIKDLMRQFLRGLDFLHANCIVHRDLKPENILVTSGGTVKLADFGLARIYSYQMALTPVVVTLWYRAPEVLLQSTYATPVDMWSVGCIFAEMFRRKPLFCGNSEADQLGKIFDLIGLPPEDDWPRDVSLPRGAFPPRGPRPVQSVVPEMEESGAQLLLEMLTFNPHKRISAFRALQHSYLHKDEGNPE
CDK4/Cyclin D1, sequence (P24385 whole entry partner): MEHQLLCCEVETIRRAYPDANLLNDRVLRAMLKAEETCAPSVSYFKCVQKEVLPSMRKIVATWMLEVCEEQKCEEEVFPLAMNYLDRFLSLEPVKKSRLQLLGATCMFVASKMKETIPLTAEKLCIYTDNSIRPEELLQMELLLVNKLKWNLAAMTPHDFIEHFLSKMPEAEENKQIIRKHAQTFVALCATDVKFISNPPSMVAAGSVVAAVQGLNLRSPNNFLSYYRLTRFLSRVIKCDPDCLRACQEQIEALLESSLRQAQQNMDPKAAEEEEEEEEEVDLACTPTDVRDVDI
Description: as §1, with “CDK4/Cyclin D1:” for “CDK1/Cyclin B1:”, “1” for “0.08”, “200” for “40”

[6] = biological target: CDK5/p35 (Homo sapiens, UniProt Q00535); assay: CDK5/p35 kinase assay (Nanosyn, Caliper microfluidic); conditions: 12-point dose-response, ATP at Km (20 μM), 3 hr
CDK5/p35, sequence (Q00535 whole entry): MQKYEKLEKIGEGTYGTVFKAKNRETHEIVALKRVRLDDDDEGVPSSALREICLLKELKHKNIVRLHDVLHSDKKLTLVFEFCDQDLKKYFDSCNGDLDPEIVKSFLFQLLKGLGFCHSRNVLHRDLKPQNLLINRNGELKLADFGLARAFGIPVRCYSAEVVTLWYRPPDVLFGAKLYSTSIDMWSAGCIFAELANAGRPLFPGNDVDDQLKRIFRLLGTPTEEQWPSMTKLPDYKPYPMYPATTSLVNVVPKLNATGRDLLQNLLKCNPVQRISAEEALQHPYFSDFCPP
CDK5/p35, sequence (Q15078 whole entry partner): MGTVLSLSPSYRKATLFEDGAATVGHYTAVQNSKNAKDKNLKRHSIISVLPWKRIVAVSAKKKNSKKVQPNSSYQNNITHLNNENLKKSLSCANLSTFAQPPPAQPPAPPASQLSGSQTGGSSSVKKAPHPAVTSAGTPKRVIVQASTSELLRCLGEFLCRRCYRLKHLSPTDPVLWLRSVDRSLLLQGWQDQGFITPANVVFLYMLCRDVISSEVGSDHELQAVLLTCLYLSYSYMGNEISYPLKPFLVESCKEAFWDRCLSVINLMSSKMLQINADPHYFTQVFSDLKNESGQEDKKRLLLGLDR
Description: as §1, with “CDK5/p35:” for “CDK1/Cyclin B1:”, “0.05” for “0.08”, “20” for “40”

[7] = biological target: CDK5/p25 (Homo sapiens, UniProt Q00535); assay: CDK5/p25 kinase assay (Nanosyn, Caliper microfluidic); conditions: 12-point dose-response, ATP at Km (20 μM), 3 hr
CDK5/p25, sequence (Q00535 whole entry): as the sequence (Q00535 whole entry) above
CDK5/p25, sequence (Q15078 99-307 partner limits assumed): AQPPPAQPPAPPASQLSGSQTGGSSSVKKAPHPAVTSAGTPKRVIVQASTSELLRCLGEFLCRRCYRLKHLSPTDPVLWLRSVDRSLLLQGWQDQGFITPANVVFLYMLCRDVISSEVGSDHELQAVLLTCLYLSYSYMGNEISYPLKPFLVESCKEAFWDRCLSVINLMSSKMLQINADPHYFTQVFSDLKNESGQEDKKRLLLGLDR
Description: as §1, with “CDK5/p25:” for “CDK1/Cyclin B1:”, “0.1” for “0.08”, “20” for “40”

[8] = biological target: CDK6/Cyclin D3 (Homo sapiens, UniProt Q00534); assay: CDK6/Cyclin D3 kinase assay (Nanosyn, Caliper microfluidic); conditions: 12-point dose-response, ATP at Km (300 μM), 3 hr
CDK6/Cyclin D3, sequence (Q00534 whole entry): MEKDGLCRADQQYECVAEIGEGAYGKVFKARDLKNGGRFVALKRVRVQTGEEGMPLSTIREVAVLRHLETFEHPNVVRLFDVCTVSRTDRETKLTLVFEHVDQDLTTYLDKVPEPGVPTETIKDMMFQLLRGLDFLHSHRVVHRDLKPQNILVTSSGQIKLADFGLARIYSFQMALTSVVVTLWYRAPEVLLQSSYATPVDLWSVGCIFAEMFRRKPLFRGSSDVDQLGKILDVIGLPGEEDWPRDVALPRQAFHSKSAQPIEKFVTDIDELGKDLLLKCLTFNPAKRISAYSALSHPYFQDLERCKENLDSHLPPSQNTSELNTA
CDK6/Cyclin D3, sequence (P30281 whole entry partner): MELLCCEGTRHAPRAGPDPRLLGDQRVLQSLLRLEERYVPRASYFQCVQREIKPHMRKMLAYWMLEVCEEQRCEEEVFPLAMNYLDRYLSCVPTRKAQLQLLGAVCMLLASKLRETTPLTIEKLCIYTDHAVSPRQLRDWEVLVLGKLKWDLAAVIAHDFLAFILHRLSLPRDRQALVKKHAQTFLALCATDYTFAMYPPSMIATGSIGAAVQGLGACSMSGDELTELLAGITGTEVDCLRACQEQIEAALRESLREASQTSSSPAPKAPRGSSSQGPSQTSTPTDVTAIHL
Description: as §1, with “CDK6/Cyclin D3:” for “CDK1/Cyclin B1:”, “2” for “0.08”, “300” for “40”

[9] = biological target: CDK7/Cyclin H (Homo sapiens, UniProt P50613); assay: CDK7/Cyclin H kinase assay (Nanosyn, Caliper microfluidic); conditions: 12-point dose-response, ATP at Km (50 μM), 17 hr
CDK7/Cyclin H, sequence (P50613 whole entry): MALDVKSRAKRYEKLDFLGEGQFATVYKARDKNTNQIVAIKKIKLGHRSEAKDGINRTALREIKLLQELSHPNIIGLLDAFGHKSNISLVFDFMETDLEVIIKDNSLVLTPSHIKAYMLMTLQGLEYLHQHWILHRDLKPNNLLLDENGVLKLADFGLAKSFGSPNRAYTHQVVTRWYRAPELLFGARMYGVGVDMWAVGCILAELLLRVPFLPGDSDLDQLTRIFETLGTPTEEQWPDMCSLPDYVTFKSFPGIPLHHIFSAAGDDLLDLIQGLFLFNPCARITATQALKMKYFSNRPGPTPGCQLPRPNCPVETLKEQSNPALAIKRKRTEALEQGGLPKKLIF
CDK7/Cyclin H, sequence (P51946 whole entry partner): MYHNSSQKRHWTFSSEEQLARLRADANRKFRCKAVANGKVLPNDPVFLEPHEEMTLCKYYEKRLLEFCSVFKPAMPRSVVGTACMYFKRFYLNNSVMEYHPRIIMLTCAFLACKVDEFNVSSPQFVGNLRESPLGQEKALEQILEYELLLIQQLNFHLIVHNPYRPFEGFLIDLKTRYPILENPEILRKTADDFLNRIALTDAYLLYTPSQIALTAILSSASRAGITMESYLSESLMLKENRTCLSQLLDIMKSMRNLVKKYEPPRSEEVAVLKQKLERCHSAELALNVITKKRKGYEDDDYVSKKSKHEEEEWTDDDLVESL
CDK7/Cyclin H, sequence (P51948 whole entry partner): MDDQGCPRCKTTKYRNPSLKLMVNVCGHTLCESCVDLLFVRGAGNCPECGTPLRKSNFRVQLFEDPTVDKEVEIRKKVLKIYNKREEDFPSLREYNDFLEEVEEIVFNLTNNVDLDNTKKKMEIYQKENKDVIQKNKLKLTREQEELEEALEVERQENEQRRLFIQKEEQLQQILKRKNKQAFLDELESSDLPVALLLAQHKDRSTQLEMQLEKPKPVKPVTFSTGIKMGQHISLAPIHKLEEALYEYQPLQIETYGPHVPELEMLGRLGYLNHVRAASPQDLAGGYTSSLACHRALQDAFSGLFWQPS
Description: as §1, with “CDK7/Cyclin H:” for “CDK1/Cyclin B1:”, “10” for “0.08”, “50” for “40”, “17” for “3”

[10] = biological target: CDK9/Cyclin T (Homo sapiens, UniProt P50750); assay: CDK9/Cyclin T kinase assay (Nanosyn, Caliper microfluidic); conditions: 12-point dose-response, ATP at Km (10 μM), 17 hr; Table 5
Description: as §1, with “[…]:” for “CDK1/Cyclin B1:”, “5” for “0.08”, “10” for “40”, “17” for “3”

CDK1/Cyclin B1, sequence (P06493 whole entry): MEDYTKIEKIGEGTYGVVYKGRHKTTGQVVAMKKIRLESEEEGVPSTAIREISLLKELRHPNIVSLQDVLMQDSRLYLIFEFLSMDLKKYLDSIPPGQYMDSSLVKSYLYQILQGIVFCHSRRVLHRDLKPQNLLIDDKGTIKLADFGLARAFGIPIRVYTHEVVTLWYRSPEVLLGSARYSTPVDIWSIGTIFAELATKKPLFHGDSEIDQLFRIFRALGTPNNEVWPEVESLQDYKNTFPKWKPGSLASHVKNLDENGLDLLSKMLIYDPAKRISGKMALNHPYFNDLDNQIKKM
CDK1/Cyclin B1, sequence (P14635 whole entry partner): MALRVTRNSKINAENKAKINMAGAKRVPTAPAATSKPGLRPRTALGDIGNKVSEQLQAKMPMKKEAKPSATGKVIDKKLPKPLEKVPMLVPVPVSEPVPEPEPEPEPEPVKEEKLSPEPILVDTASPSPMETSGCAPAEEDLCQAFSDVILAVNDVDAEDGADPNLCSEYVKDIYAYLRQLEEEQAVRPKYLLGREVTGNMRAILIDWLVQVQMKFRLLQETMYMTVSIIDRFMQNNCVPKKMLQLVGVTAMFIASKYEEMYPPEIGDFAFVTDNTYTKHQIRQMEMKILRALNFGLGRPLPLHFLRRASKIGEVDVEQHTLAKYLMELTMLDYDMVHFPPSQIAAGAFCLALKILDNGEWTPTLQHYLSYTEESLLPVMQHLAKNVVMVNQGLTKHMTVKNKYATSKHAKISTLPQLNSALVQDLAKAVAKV

| SMILES | IC50 [1] | IC50 [2] | IC50 [3] | IC50 [4] | IC50 [5] | IC50 [6] | IC50 [7] | IC50 [8] | IC50 [9] | IC50 [10] |
| --- | --- | --- | --- | --- | --- | --- | --- | --- | --- | --- |
| CN1CCN([C@H]2CC[C@@H](Nc3ncc4cc5n(c4n3)C3(CCCCC3)CNC5=S)CC2)CC1 [Compound 39, 2′-(((1s,4s)-4-(4-methylpiperazin-1-yl)cyclohexyl)amino)-7′,8′-dihydro-6′H-spiro[cyclohexane-1,9′-pyrazino[1′,2′:1,5]pyrrolo[2,3-d]pyrimidine]-6′-thione] | 1200 nM | 140 nM | 300 nM | 420 nM | 9.5 nM | 1500 nM | 1600 nM | 48 nM | 500 nM | 13 nM |
| O=C1NCC2(CCCCC2)n2c1cc1cnc(NC(=O)[C@H]3CNCC[C@H]3c3ccccc3)nc12 [Compound 28, (3R,4R)-N-(6′-oxo-7′,8′-dihydro-6′H-spiro[cyclohexane-1,9′-pyrazino[1′,2′:1,5]pyrrolo[2,3-d]pyrimidin]-2′-yl)-4-phenylpiperidine-3-carboxamide] | 93000 nM | 67000 nM | > 100000 nM | > 100000 nM | 9000 nM | > 100000 nM | > 100000 nM | > 100000 nM | > 100000 nM | 240 nM |
| C[C@H]1CC[C@@H](Nc2ncc3cc4n(c3n2)C2(CCCCC2)CN=C4)CC1 [Compound 53, N-((1s,4s)-4-methylcyclohexyl)-8′H-spiro[cyclohexane-1,9′-pyrazino[1′,2′:1,5]pyrrolo[2,3-d]pyrimidin]-2′-amine] | 1500 nM | 670 nM | 480 nM | 850 nM | 2900 nM | 1500 nM | 1500 nM | 9000 nM | 4600 nM | 890 nM |
| O=C(C[C@@H]1CCCN1)Nc1ncc2cc3n(c2n1)C1(CCCCC1)CNC3=O [Compound 34, (S)-N-(6′-oxo-7′,8′-dihydro-6′H-spiro[cyclohexane-1,9′-pyrazino[1′,2′:1,5]pyrrolo[2,3-d]pyrimidin]-2′-yl)-2-(pyrrolidin-2-yl)acetamide] | 18000 nM | 12000 nM | 27000 nM | 33000 nM | 2900 nM | 29000 nM | 52000 nM | 8400 nM | 17000 nM | 190 nM |
| O=C1NCC2(CCCCC2)n2c1cc1cnc(NC(=O)[C@@H]3CCCNC3)nc12 [Compound 11, (R)-N-(6′-oxo-7′,8′-dihydro-6′H-spiro[cyclohexane-1,9′-pyrazino[1′,2′:1,5]pyrrolo[2,3-d]pyrimidin]-2′-yl)piperidine-3-carboxamide] | 4400 nM | 3100 nM | 13000 nM | 7200 nM | 2900 nM | 30000 nM | 35000 nM | 28000 nM | 13000 nM | 5.5 nM |

The next molecules have a lower IC50 [1] than those just listed; values first:

| IC50 [1] | IC50 [2] | IC50 [3] | IC50 [4] | IC50 [5] | IC50 [6] | IC50 [7] | IC50 [8] | IC50 [9] | IC50 [10] | SMILES |
| --- | --- | --- | --- | --- | --- | --- | --- | --- | --- | --- |
| 410 nM | 78 nM | 190 nM | 510 nM | 69 nM | 170 nM | 230 nM | 350 nM | 3400 nM | 56 nM | CS(=O)(=O)N[C@H]1CC[C@H](Nc2ncc3cc4n(c3n2)C2(CCCCC2)CNC4=O)CC1 [Compound 22, N-((1,4-trans)-4-((6′-oxo-7′,8′-dihydro-6′H-spiro[cyclohexane-1,9′-pyrazino[1′,2′:1,5]pyrrolo[2,3-d]pyrimidin]-2′-yl)amino)cyclohexyl)methanesulfonamide] |
| 270 nM | 140 nM | 260 nM | 240 nM | 11 nM | 310 nM | 360 nM | 47 nM | 86 nM | 3.3 nM | CN(C)[C@H]1CC[C@H](Nc2ncc3cc4n(c3n2)C2(CCCCC2)CNC4=O)CC1 [Compound 45, 2′-(((1,4-trans)-4-(dimethylamino)cyclohexyl)amino)-7′,8′-dihydro-6′H-spiro[cyclohexane-1,9′-pyrazino[1′,2′:1,5]pyrrolo[2,3-d]pyrimidin]-6′-one] |
| 140 nM | 33 nM | 72 nM | 110 nM | 6.8 nM | 160 nM | 140 nM | 40 nM | 100 nM | 2.2 nM | N[C@H]1CC[C@H](Nc2ncc3cc4n(c3n2)C2(CCCCC2)CNC4=O)CC1 [Compound 49, 2′-(((1r,4r)-4-aminocyclohexyl)amino)-7′,8′-dihydro-6′H-spiro[cyclohexane-1,9′-pyrazino[1′,2′:1,5]pyrrolo[2,3-d]pyrimidin]-6′-one] |
| 91 nM | 110 nM | 190 nM | 240 nM | 13 nM | 470 nM | 480 nM | 72 nM | 170 nM | 2.7 nM | O=C1NCC2(CCCCC2)n2c1cc1cnc(N[C@H]3CC[C@H](NC4CCOCC4)CC3)nc12 [Compound 16, 2′-(((1r,4r)-4-((tetrahydro-2H-pyran-4-yl)amino)cyclohexyl)amino)-7′,8′-dihydro-6′H-spiro[cyclohexane-1,9′-pyrazino[1′,2′:1,5]pyrrolo[2,3-d]pyrimidin]-6′-one] |
